Results: patent US6407094B1, “Glutamate receptor antagonists” (Hoffmann-la Roche Inc., priority 1999, dated 2002)
pKi: −log10 of the molar value.

Key:
rat mGlu2 receptor = biological target: T1, rat mGlu2 receptor (Rattus norvegicus, UniProt P31421); assay: [3H]-LY354740 binding on mGlu2 transfected CHO cell membranes
T1 construct: expressed in transfected cells; host or cells: CHO cells, stably transfected with pcD1mGR2 (pcDNA I-amp), G-418 selected; membranes used
T1 sequence (P31421 19-872): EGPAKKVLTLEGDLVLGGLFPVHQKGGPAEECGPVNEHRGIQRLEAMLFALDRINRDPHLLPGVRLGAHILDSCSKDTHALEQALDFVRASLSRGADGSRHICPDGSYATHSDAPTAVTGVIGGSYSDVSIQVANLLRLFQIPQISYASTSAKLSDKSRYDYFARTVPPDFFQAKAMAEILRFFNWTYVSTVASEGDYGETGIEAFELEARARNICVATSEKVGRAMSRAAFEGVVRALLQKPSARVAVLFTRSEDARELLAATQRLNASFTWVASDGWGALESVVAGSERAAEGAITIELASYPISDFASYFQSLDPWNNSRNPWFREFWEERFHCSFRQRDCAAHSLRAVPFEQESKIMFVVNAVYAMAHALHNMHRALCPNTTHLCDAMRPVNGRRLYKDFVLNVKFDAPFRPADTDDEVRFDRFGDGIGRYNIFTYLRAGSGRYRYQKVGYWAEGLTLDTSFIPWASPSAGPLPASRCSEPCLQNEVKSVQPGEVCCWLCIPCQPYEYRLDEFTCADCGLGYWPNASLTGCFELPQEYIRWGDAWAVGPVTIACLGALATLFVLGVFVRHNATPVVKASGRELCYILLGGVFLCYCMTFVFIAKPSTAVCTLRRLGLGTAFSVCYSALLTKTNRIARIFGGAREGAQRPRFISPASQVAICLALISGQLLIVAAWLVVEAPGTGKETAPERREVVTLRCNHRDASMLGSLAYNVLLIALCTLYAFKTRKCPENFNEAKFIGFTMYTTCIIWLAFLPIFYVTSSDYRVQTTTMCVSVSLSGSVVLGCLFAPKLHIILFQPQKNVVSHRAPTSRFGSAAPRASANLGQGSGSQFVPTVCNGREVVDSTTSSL

pKi (rat mGlu2 receptor) | melting point | Compound
7.46 | 222 °C (dec.) | N#Cc1cccc(C2=Nc3cc(OCC4COC(=O)O4)c(C#Cc4ccccc4)cc3NC(=O)C2)c1 (racemic) [Example 28, [RS]-3-[4-Oxo-8-(2-oxo-[1,3]dioxolan-4-ylmethoxy)-7-phenylethynyl-4,5-dihydro-3H-benzo[b][1,4]diazepin-2-yl]-benzonitrile]
6.92 | 242 to 244 °C (dec.) | N#Cc1cccc(C2=Nc3cc(Cl)c(-c4ccccc4)cc3NC(=O)C2)c1 [Example 7, 3-(8-Chloro-4-oxo-7-phenyl-4,5-dihydro-3H-benzo[b][1,4]diazepin-2-yl)-benzonitrile]
7.29 | 201 °C (dec.) | COC(=O)CSc1cc2c(cc1C#Cc1ccccc1)NC(=O)CC(c1cccc(C#N)c1)=N2 [Example 12, [4-(3-Cyano-phenyl)-2-oxo-8-phenylethynyl-2,3-dihydro-1H-benzo[b][1,4]diazepin-7-ylsulfanyl]-acetic acid methyl ester]
7.43 | 250 °C (dec.) | N#Cc1cccc(C2=Nc3cc(CC(N)=O)c(C#Cc4ccccc4)cc3NC(=O)C2)c1 [Example 17, 2-[4-(3-Cyano-phenyl)-2-oxo-8-phenylethynyl-2,3-dihydro-1H-benzo[b][1,4]diazepin-7-yl]-acetamide]
7.34 | > 250 °C | COc1cc2c(cc1C#Cc1ccccc1)NC(=O)CC(c1cccc(C#N)c1)=N2 [Example 20, 3-(8-Methoxy-4-oxo-7-phenylethynyl-4,5-dihydro-3H-benzo[b][1,4]diazepin-2-yl)-benzonitrile]
7.80 | 262 °C (dec.) | N#CCc1cc2c(cc1C#Cc1ccccc1)NC(=O)CC(c1cccc(C#N)c1)=N2 [Example 23, 3-(8-Cyanomethyl-4-oxo-7-phenylethynyl-4,5-dihydro-3H-benzo[b][1,4]diazepin-2-yl)-benzonitrile]
7.68 | 192 °C (dec.) | COCCOc1cc2c(cc1C#Cc1ccccc1)NC(=O)CC(c1cccc(I)c1)=N2 [Example 25]
7.92 | 187 to 189 °C | COCCOc1cc2c(cc1C#Cc1ccccc1)NC(=O)CC(c1cccc(-n3ccnc3)c1)=N2 [Example 27, 4-(3-Imidazol-1-yl-phenyl)-7-(2-methoxy-ethoxy)-8-phenylethynyl-1,3-dihydro-benzo[b][1,4]diazepin-2-one]
7.74 | 227 °C | O=C1CC(c2cccc(-n3ccnc3)c2)=Nc2cc(CO)c(C#Cc3ccccc3)cc2N1 [Example 32, 7-Hydroxymethyl-4-(3-imidazol-1-yl-phenyl)-8-phenylethynyl-1,3-dihydro-benzo[b][1,4]diazepin-2-one]
8.05 | 234 °C (dec.) | O=C1CC(c2cccc(-n3ccnc3)c2)=Nc2cc(CO)c(C#Cc3ccc(F)cc3)cc2N1 [Example 37, 8-(4-Fluoro-phenylethynyl)-7-hydroxymethyl-4-(3-imidazol-1-yl-phenyl)-1,3-dihydro-benzo[b][1,4]diazepin-2-one]
7.49 | 224 to 227 °C | O=C1CC(c2cccc(-n3ccnc3)c2)=Nc2cc(OCCO)c(C#Cc3ccccc3)cc2N1 [Example 42, 7-(2-Hydroxy-ethoxy)-4-(3-imidazol-1-yl-phenyl)-8-phenylethynyl-1,3-dihydro-benzo[b][1,4]diazepin-2-one]
7.00 | 225 to 227 °C | O=C1CC(c2cccc(-n3ccnc3)c2)=Nc2cc(N3CCC(OCCO)CC3)c(-c3ccc(F)cc3)cc2N1 [Example 45, 8-(4-Fluoro-phenyl)-7-[4-(2-hydroxy-ethoxy)-piperidin-1-yl]-4-(3-imidazol-1-yl-phenyl)-1,3-dihydro-benzo[b][1,4]diazepin-2-one]
8.15 | 250 °C | O=C1CC(c2cccc(-n3ccnc3)c2)=Nc2cc(O)c(-c3ccc(F)cc3)cc2N1 [Example 61, 8-(4-Fluoro-phenyl)-7-hydroxy-4-(3-imidazol-1-yl-phenyl)-1,3-dihydro-benzo[b][1,4]diazepin-2-one]
6.86 | 220 to 222 °C | COc1cc2c(cc1-c1ccccc1F)NC(=O)CC(c1cccc(-n3ccnc3C)c1)=N2 [Example 68, 8-(2-Fluoro-phenyl)-7-methoxy-4-[3-(2-methyl-imidazol-1-yl)-phenyl]-1,3-dihydro-benzo[b][1,4]diazepin-2-one]
6.77 | > 250 °C | COc1cc2c(cc1-c1ccccc1F)NC(=O)CC(c1ccc(C#N)s1)=N2 [Example 69]
7.48 | 240 to 242 °C | COc1cc2c(cc1-c1ccccc1F)NC(=O)CC(c1ccnc(C#N)c1)=N2 [Example 71, 4-[7-(2-Fluoro-phenyl)-8-methoxy-4-oxo-4,5-dihydro-3H-benzo[b][1,4]diazepin-2-yl)-pyridine-2-carbonitrile]
7.55 | > 250 °C | O=C1CC(c2cccc(-n3ccnn3)c2)=Nc2cc(O)c(-c3ccccc3F)cc2N1 [Example 75, 8-(2-Fluoro-phenyl)-7-hydroxy-4-(3-[1,2,3]triazol-1-yl-phenyl)-1,3-dihydro-benzo[b][1,4]diazepin-2-one]
6.97 | > 250 °C | Cc1nccn1-c1cccc(C2=Nc3cc(O)c(-c4ccccc4F)cc3NC(=O)C2)c1 [Example 79, 8-(2-Fluoro-phenyl)-7-hydroxy-4-[3-(2-methyl-imidazol-1-yl)-phenyl]-1,3-dihydro-benzo[b][1,4]diazepin-2-one]
7.68 | > 250 °C | CSc1nccn1-c1cccc(C2=Nc3cc(O)c(-c4ccccc4F)cc3NC(=O)C2)c1 [Example 81, 8-(2-Fluoro-phenyl)-7-hydroxy-4-[3-(2-methylsulfanyl-imidazol-1-yl)-phenyl]-1,3-dihydro-benzo[b][1,4]diazepin-2-one]
7.92 | 241 °C | COc1cc2c(cc1-c1cc(F)ccc1F)NC(=O)CC(c1cccc(-n3ccnn3)c1)=N2 [Example 83, 8-(2,5-Difluoro-phenyl)-7-methoxy-4-(3-[1,2,3]triazol-1-yl-phenyl)-1,3-dihydro-benzo[b][1,4]diazepin-2-one]
7.82 | 237 °C | Cc1cc(-c2cccc(C3=Nc4cc(O)c(-c5ccccc5F)cc4NC(=O)C3)c2)on1 [Example 89, 8-(2-Fluoro-phenyl)-7-hydroxy-4-[3-(3-methyl-isoxazol-5-yl)-phenyl]-1,3-dihydro-benzo[b][1,4]diazepin-2-one]
8.22 | > 250 °C | N#Cc1cccc(C2=Nc3cc(O)c(-c4cc(F)ccc4F)cc3NC(=O)C2)c1 [Example 90, 3-[7-(2,5-Difluoro-phenyl)-8-hydroxy-4-oxo-4,5-dihydro-3H-benzo[b][1,4]diazepin-2-yl]-benzonitrile]
7.89 | 247 °C | O=C1CC(c2cccc(-n3ccnc3)c2)=Nc2cc(O)c(C#Cc3ccc(F)cc3)cc2N1 [Example 91, 8-(4-Fluoro-phenylethynyl)-7-hydroxy-4-(3-imidazol-1-yl-phenyl)-1,3-dihydro-benzo[b][1,4]diazepin-2-one]
